Data set [1] concerns proteases present in whole cell extract (WCE). Briefly: Protection of Magainin 2 from degradation by WCE (Magainin 2 mixed with Rev4). The data set is classed as in vitro ADME, Kentucky 14 tobacco. The note with it: in Rev4 + Magainin 2 Mix. The protocol:
(§1) Whole cell extract (WCE) was prepared by grinding one gram of Kentucky 14 tobacco leaf tissue in liquid nitrogen, followed by extraction with 3 mL of 100 mM Tris-HCl buffer, pH 7.5, 50 mM NaCl. The mixture was clarified by spinning in a microcentrifuge (14,000 r.p.m., 5 minutes). The supernatant (WCE) was kept frozen as aliquots at −80° C. until required for an assay. Fifty micrograms of each peptide was incubated with different amounts of WCE in 50 mM Tris-HCl buffer, pH 7.5, total volume 50 microliters, for one hour at 37° C. The reaction was stopped by adding 1% trifluoroacetic acid (TFA). A sample of the reaction mixture (20 μL) was injected onto a Vydac C4 column (4.6×250 mm) in a Waters HPLC system with 515 pumps, 486 detector and Millenium software. The sample was eluted with a gradient of 0.1% TFA in water to 60% acetonitrile in 0.1% TFA. The area of the peak corresponding to the undigested peptide was integrated and compared with the equivalent peak from a 0% WCE control.
(§2) Assays for WCE protease degradation were performed as described in Example 8 except that one of the samples represented Magainin 2 that was mixed with Rev4 before the addition of WCE. The amounts of Magainin 2 and Rev4 remaining in the mixture were determined by HPLC as described for Examples 7 and 8.

Data set [2] is described as follows: Stability of peptides to proteases in whole cell extract (WCE), HPLC. The conditions noted are these: other tissue homogenate, peptide alone, read-out: % Peptide Remaining Intact after 1 Hr. It counts as in vitro ADME, Kentucky 14 tobacco. The protocol:
as §1, §2

Data set [3] concerns proteases present in whole cell extract (WCE). The data set is described as above. The data set is classed as in vitro ADME, Kentucky 14 tobacco. The conditions noted are these: peptide alone. The method, then:
as §1, §2

The next data set deals with Staphylococcus aureus. The note with it: Falla and Hancock 1997; cited from earlier work.
The next data set relates to Candida albicans. The conditions noted are these: Falla and Hancock 1997; cited from earlier work.
The subject of a further data set is E. coli. The conditions noted are these: Falla and Hancock 1997; cited from earlier work.
The next data set has as its system Pseudomonas aeruginosa. The note with it: Falla and Hancock 1997; cited from earlier work.
Another data set deals with Peronospora tabacina. The data set is described as follows: Tobacco blue mold spore germination assay. The data set is classed as cell-based. The conditions noted are these: for % Germination (mean +/− sem): final concentration of 2 μg/mL, control 76.6 +/− 11.2; for % Control: germination as % of no-peptide control, 2 μg/mL; for antifungal activity (in words): refers to EXAMPLE 12. The protocol: Tobacco blue mold (Peronospora tabacina) was used to compare the antifungal activity of Rev4 with that of MYP30. Spores of Peronospora tabacina were harvested from infected tobacco leaf with sterile water and washed three times. The spore suspension was diluted to 2,000 spores per mL. Peptide solution (2 μL) was added to spore suspension (48 μL) in a 96-well microtiter plate. After incubation in the dark at room temperature for 24 hours, the number of germinated spores was determined microscopically.
The peptides described as SEQ. ID Nos. 4, 5, 6, 7 and 8 in Examples 1, 3, 4, 5 and 6 were tested for antifungal activity as described in Example 11.

Another data set addresses T1, Chymotrypsin (Bos taurus, UniProt P00766).
T1 construct: purchased
Briefly: Inhibition of protease digestion of fluorescent labeled casein: chymotrypsin. It counts as biochemical. The conditions noted are these: for Chymotrypsin Activity (Fluorescence Units) Mean: no-peptide control 375. The method, then: (§3) The ability of Rev4 to inhibit four different classes of proteases was tested using fluorescent labeled casein as substrate under the following conditions:
(§4) Each protease was incubated with substrate (5 μg/mL fluorescent labeled casein; Molecular Probes Inc., Eugene, Oreg.) and peptide in a total volume of 200 μL in a 96-well microtiter plate. Before use, papain was activated with cysteine (Arnon, 1970, Methods in Enzymology 19:226–44). After incubation at room temperature for one hour, fluorescence due to casein digestion was measured in a Luminescence Spectrometer (LS50B, Perkin Elmer Ltd., England) with an excitation wavelength of 505 nm and an emission wavelength of 513 nm. The blank control contained the substrate, buffer and peptide but lacked the protease.
The peptides described in EXAMPLE 12 were tested for their effects on the action of chymotrypsin on casein using the methods described in EXAMPLE 10.

For data set [4], the system named is Alternaria alternata f.sp. lycopersici. The data set is described as follows: Minimum concentration to completely inhibit spore germination, Alternaria. The data set is classed as cell-based. The conditions noted are these: 5,000 spores per mL, triplicate. The text has this:
(§5) The antifungal activity of Rev4 and related peptides was also compared using two tomato pathogens, Verticillium dahliae racel and Alternaria alternata f.sp. lycopersici. Spores were harvested from pure cultures grown on V8 medium, diluted to 5,000 spores per mL, and tested against dilution series of peptides in 96-well plates as described in U.S. Pat. No. 5,424,395.

Data set [5] relates to Verticillium dahliae racel. Briefly: Minimum concentration to completely inhibit spore germination, Verticillium. The conditions noted are these: 5,000 spores per mL, triplicate. It counts as cell-based.
From the text: as §5

For the next data set, the target named is T2, Pepsin (Sus scrofa, UniProt P00791).
T2 construct: purchased
Briefly: Inhibition of protease digestion of fluorescent labeled casein: pepsin. The conditions noted are these: pH 2, pepsin 0.01 mg/mL, pH2.0, read-out: % Inhibition of Proteolysis. The data set is classed as biochemical. The method, then:
as §3, §4

In another data set the target is T3, Papain (Carica papaya, UniProt P00784).
T3 construct: purchased
T3 sequence (P00784 134-345): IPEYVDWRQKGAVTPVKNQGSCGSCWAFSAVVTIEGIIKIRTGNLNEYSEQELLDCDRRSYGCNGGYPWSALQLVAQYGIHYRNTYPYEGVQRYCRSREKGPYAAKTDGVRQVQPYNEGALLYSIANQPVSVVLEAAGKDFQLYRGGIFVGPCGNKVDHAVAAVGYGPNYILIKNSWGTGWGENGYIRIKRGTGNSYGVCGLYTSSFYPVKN
The data set is described as follows: Inhibition of protease digestion of fluorescent labeled casein: papain. The conditions noted are these: pH 6.2, papain 0.01 mg/mL, pH6.2, read-out: % Inhibition of Proteolysis. It counts as biochemical. The protocol: as §3, §4

For data set [6], the system named is proteases in the intercellular fluid of plant leaves. The conditions noted are these: cited from earlier work.

Like-named read-outs stand apart in the source and are kept apart here. No end group written: not given here.

As a reminder, the share remaining is the share of the starting amount still present when the sample was taken. As usually defined, the inhibition is the share of the control response that was lost under treatment.

T2 sequence (P00791 60-385): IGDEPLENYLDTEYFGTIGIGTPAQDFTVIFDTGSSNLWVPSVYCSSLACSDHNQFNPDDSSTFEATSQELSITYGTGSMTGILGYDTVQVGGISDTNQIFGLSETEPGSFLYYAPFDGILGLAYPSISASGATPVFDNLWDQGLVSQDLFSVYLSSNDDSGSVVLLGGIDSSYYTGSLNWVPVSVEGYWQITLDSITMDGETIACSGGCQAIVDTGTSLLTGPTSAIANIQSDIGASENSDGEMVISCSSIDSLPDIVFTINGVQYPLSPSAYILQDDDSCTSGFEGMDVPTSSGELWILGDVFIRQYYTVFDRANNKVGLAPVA

On to “H-GIGKFLHSAKKFGKAFVGEIMNS-OH [Magainin 2, reference compound]”, for which the “% Peptide Remaining Intact after 1 Hr.” value in data set [1] (15% WCE) worked out at 89.7%; in data set [1] (30% WCE) it was 87.6%; in [1] (60% WCE) it was 73.1%; in [1] (90% WCE), 56.3%; in [3] (45% WCE), 0.4%; in data set [3] (60% WCE), 0.3%. Also, the share remaining at 1 h, 1 mg/mL came to 10.9% in data set [2] (pH 7.5, 15% WCE); 0.3% in data set [2] (pH 7.5, 30% WCE); 0.4% in [2] (pH 7.5, 90% WCE).
Consider “ILKKWPWWPWRR [CP-11, synthetic peptide based on indolicidin (Falla and Hancock)]”, for which the “activity against Staphylococcus aureus relative to indolicidin (in words)” value in the data set with Staphylococcus aureus is given as “reduced activity”. Further, the “activity against Candida albicans relative to indolicidin (in words)” value in the data set with Candida albicans is listed as “better activity”. Also, the “activity against E. coli relative to indolicidin (in words)” value with E. coli is “better activity”. Moreover, the “activity against Pseudomonas aeruginosa relative to indolicidin (in words)” value with Pseudomonas aeruginosa is given as “better activity”.
On to “Ile Leu Lys Gly Phe Pro Gly Phe Pro Arg Arg Lys (ILKGFPGFPRRK-NH2) [SEQ. ID NO. 8, derivative of indolicidin in which Trp residues were replaced by Phe and a Pro residue was deleted]”, for which, in the data set with Peronospora tabacina, the “% Germination (mean +/− sem)” value is reported as 17.3 +/− 3.5%, the “% Control” value is given as 23% and the “antifungal activity (in words)” value is listed as “had retained antifungal activity”. In the data set with Chymotrypsin, the “protection of fluorescent-labeled casein from chymotrypsin (in words)” value (“protection of fluorescent-labeled casein” below) was “did not have this protective effect”. For the same substance, in the data set with Chymotrypsin (peptide 5 μg/mL), the “Chymotrypsin Activity (Fluorescence Units) Mean” value (“Chymotrypsin Activity” below) is 385 Fluorescence Units. Moreover, in the data set with Chymotrypsin (peptide 20 μg/mL), the “Chymotrypsin Activity” value is 321 Fluorescence Units.
For “Ile Leu Pro Phe Lys Phe Pro Phe Phe Pro Phe Arg Arg (ILPFKFPFFPFRR-NH2) [SEQ. ID NO. 7, indolicidin in which the Trp residues were replaced with Phe]”, in the data set on Peronospora tabacina, the “% Germination (mean +/− sem)” value is on record as 8.8 +/− 5.4%, the “% Control” value amounted to 11% and the “antifungal activity (in words)” value is given as “had retained antifungal activity”. Further, the “minimum concentration required to completely inhibit spore germination for at least 48 hours” value in data set [4] was found to be 100 µg/mL. Moreover, the “protection of fluorescent-labeled casein” value with Chymotrypsin was “did not have this protective effect”. Moreover, the “Chymotrypsin Activity” value with Chymotrypsin (peptide 5 μg/mL) came out at 386 Fluorescence Units. The “Chymotrypsin Activity” value with Chymotrypsin (peptide 20 μg/mL) was found to be 385 Fluorescence Units. Also, the “minimum concentration required to completely inhibit spore germination for at least 48 hours” value in [5] is 50 µg/mL.
Take “RRWPWWPWKWPLI-NH2 [Rev4, Arg Arg Trp Pro Trp Trp Pro Trp Lys Trp Pro Leu Ile]”: the inhibition at 2.5 µg/mL at Chymotrypsin (pH 8, Rev4 2.5 μg/ml, chymotrypsin 0.01 mg/mL, pH8.0, read-out: % Inhibition of Proteolysis) was 16%; at Papain (Rev4 2.5 μg/ml) it was 29%. In addition, the inhibition at 5 µg/mL was determined as 42% at Chymotrypsin (pH 8, Rev4 5 μg/ml, chymotrypsin 0.01 mg/mL, pH8.0, read-out: % Inhibition of Proteolysis) and 72% on Papain (Rev4 5 μg/ml). Further, the inhibition at 10 µg/mL on Chymotrypsin (pH 8, Rev4 10 μg/ml, chymotrypsin 0.01 mg/mL, pH8.0, read-out: % Inhibition of Proteolysis) came out at 75%; at Papain (Rev4 10 μg/ml), 93%. For the same substance, the inhibition at 20 µg/mL is 97% at Chymotrypsin (pH 8, Rev4 20 μg/ml, chymotrypsin 0.01 mg/mL, pH8.0, read-out: % Inhibition of Proteolysis) and 99% on Papain (Rev4 20 μg/ml). Moreover, at Pepsin (Rev4 25 μg/ml), the inhibition at 25 µg/mL was 3%. In addition, the inhibition at 50 µg/mL at Pepsin (Rev4 50 μg/ml) is 0%. In addition, the inhibition at 100 µg/mL at Pepsin (Rev4 100 μg/ml) was 0%.
Turning to “RRWPWWPWKWPLIGGGYDPAPPPPPP [SEQ. ID NO. 6, Rev4 with a C-terminal extension of 13 amino acids]”, in the data set on Peronospora tabacina, the “% Germination (mean +/− sem)” value is listed as 5.7 +/− 9.8%. Also, the “% Control” value with Peronospora tabacina was found to be 7%. The “minimum concentration required to completely inhibit spore germination for at least 48 hours” value in data set [4] worked out at 50 µg/mL; in data set [5] it was 23 µg/mL. For the same substance, the “protection of fluorescent-labeled casein” value with Chymotrypsin is recorded as “protected fluorescent-labeled casein from the action of chymotrypsin”. Besides, the “Chymotrypsin Activity” value with Chymotrypsin (peptide 5 μg/mL) was found to be 212 Fluorescence Units; in the data set with Chymotrypsin (peptide 20 μg/mL), 45 Fluorescence Units.
For the substance “Ser Arg Arg Trp Pro Trp Trp Pro Trp Lys Trp Pro Leu Ile (SRRWPWWPWKWPLI-OH) [SEQ. ID NO. 5, analog of Rev4 in which an extra Ser was added to the N-terminus]”, in the data set with Peronospora tabacina, the “% Germination (mean +/− sem)” value was 6.8 +/− 6.3% and the “% Control” value is reported as 9%. Moreover, the “protection of fluorescent-labeled casein” value in the data set with Chymotrypsin is listed as “protected fluorescent-labeled casein from the action of chymotrypsin”. For the same substance, the “Chymotrypsin Activity” value with Chymotrypsin (peptide 5 μg/mL) was 162 Fluorescence Units. Further, the “Chymotrypsin Activity” value in the data set with Chymotrypsin (peptide 20 μg/mL) worked out at 44 Fluorescence Units. Besides, the “minimum concentration required to completely inhibit spore germination for at least 48 hours” value in [5] was 50 µg/mL.
Turning to “cecropin B: antimicrobial peptide cecropin B (KWKVFKKIEKMGRNIRNGIVKAGPAIAVLGEAKAL; ends and bridges not checked; UniProt P01508 27-61, looked up)”, in data set [6], the “degradation / stability against proteases of plant intercellular fluid (in words)” value is listed as “rapidly degraded”.

The record behind these values is patent publication US7214766B2 (priority 1998, dated 2007).
